US20130156819A1, “ISOLATION OF MESENCHYMAL STEM CELLS” (Baden-Württemberg Stiftung gGmbH, priority 2010, published 2013)
Square brackets hold non-standard residues; d marks the D form. Ends that are not written are not given here. Orn = NCCC[C@H](N)C(=O)O; DOA = not defined here; Doa = not defined here

Tests used:
MSCs = assay: Adhesion of MSCs to BSA-coupled peptide microarrays (MSA technology); assay type: cell-based, human; conditions: peptide coupled to bovine serum albumin, incubation two hours, FIG. 2
Procedure: (§1) The adhesion of cells to peptides was also measured using the MSA™ technology (see Kuschel et al., 2006) as above in example 1. Instead of the extracellular matrix proteins, however, peptides coupled to bovine serum albumin were printed in the form of microarrays (8×8 microspots) onto the nitrocellulose layer, and then the remaining surface was sealed. For incubation with cells, small silicone chambers were placed on the coated slides, and incubated with MSCs or fibroblasts. After incubation for two hours, the non-adherent cells were washed away.
(§2) Adherent cells were made visible on the white nitrocellulose film by staining with Coomassie Blue and were evaluated in a motorized photomicroscope: the number of blue cells or the color intensity per spot is measured and transferred to tables for evaluation.
(§3) Evaluation of these arrays using the semi-automatic photomicroscope gave the relative binding strength on PLL (standardized to 100%, positive control) and BSA (standardized to 0%, negative control) for the peptides tested in each case.

fibroblasts = assay: Adhesion of fibroblasts to BSA-coupled peptide microarrays (MSA technology); assay type: cell-based, human; conditions: peptide coupled to bovine serum albumin, incubation two hours, FIG. 3
Procedure: as §1, §2, §3

[1] = test system: human mesenchymal stem cells (MSC); assay: Adherence of MSCs on immobilized matrix proteins (Multiple Substrate Array chip); assay type: cell-based; conditions: immobilized protein on MSA chip, 20 000 cells/test chamber, FIG. 1
Procedure: The adherence of human mesenchymal stem cells (MSC, samples 5 and 6 in FIG. 1) and human fibroblasts (samples 1 to 4 in FIG. 1) on matrix proteins was investigated in a comparative test. The investigation was carried out using a chip (Multiple Substrate Array (MSA®)), on which the proteins were immobilized. The procedure used as such was as described in Kuschel et al., “Cell adhesion profiling using extracellular matrix protein microarrays”, Biotechniques 40: 523-531 (2006).
MSCs were enriched from bone marrow by density gradient centrifugation, cultivated as an adherent population in MSC-expansion medium, and harvested. The differentiation potential was tested on an aliquot and adipogenic, chondrogenic and osteogenic differentiation was confirmed. Therefore the cells fulfill the physiological requirements for MSCs (M. Dominici et al. 2006, Cytotherapy, 8: 315 ff). […]
Fibroblasts were isolated from the synovial membrane and expanded as described (Aicher et al. 1994 J. Immunol. 152: 5940 ff). The cells were harvested, washed, counted and in each case 20 000/test chamber were investigated using MSA™ chip technology for adherence to proteins. […] Cells adhering to the proteins were fixed chemically and their nuclei were marked with dye, for quantitation of the number of adherent cells per microspot of protein. […]

Substance	adhesion of MSCs to the peptide (MSCs)	adhesion of fibroblasts to the peptide (fibroblasts)	binding of the MSCs to the protein compared with binding of fibroblasts [1]
LAIKNDNLVYVY-OH (listed as Homo sapiens) [No. 15]	make the adhesion of MSCs possible	not that of fibroblasts	–
GF-Orn-GER-OH (GF[Orn]GER-OH; N-terminus assumed; SMILES N=C(N)NCCC[C@H](NC(=O)[C@H](CCC(=O)O)NC(=O)CNC(=O)[C@H](CCCN)NC(=O)[C@H](Cc1ccccc1)NC(=O)CN)C(=O)O) [No. 1]	make the adhesion of MSCs possible	not that of fibroblasts	–
EILDV-OH (listed as Homo sapiens) [No. 22]	make the adhesion of MSCs possible	not that of fibroblasts	–
WTPPRAQITGYRLTVGLTRR-OH (listed as Homo sapiens) [No. 30]	make the adhesion of MSCs possible	not that of fibroblasts	–
DVISLYNFKHIY-OH (listed as Homo sapiens) [No. 16]	make the adhesion of MSCs possible	not that of fibroblasts	–
EILDV-COOH (EILDV-OH; listed as Homo sapiens) [No. 22-COOH]	make the adhesion of MSCs possible	not that of fibroblasts	–
GEFYFDLRLKGDK-OH (listed as Homo sapiens) [No. 5]	make the adhesion of MSCs possible	not that of fibroblasts	–
YIIR-DOA-A-OH (YIIR[DOA]A-OH; reading uncertain; also: printed as YIIR-DOA-A-OH; listed as Homo sapiens) [No. 34-COOH]	make the adhesion of MSCs possible	not that of fibroblasts	–
LRE-OH (Leu-Arg-Glu-OH; listed as Homo sapiens) [No. 9]	make the adhesion of MSCs possible	not that of fibroblasts	–
KRSR-DOA-A-OH (KRSR[DOA]A-OH; reading uncertain; also: printed as KRSR-DOA-A-OH; listed as Homo sapiens) [No. 37b]	make the adhesion of MSCs possible	not that of fibroblasts	–
KREDVY-COOH (KREDVY-OH; listed as Homo sapiens) [No. 21-COOH]	make the adhesion of MSCs possible	not that of fibroblasts	–
YIIR-OH (listed as Homo sapiens) [No. 34]	make the adhesion of MSCs possible	not that of fibroblasts	–
GRGDSO-OH (GRGDS[Orn]-OH; N-terminus assumed; SMILES N=C(N)NCCC[C@H](NC(=O)CN)C(=O)NCC(=O)N[C@@H](CC(=O)O)C(=O)N[C@@H](CO)C(=O)N[C@@H](CCCN)C(=O)O; listed as Homo sapiens) [No. 11]	make the adhesion of MSCs possible	not that of fibroblasts	–
tenascin-C: oligomeric glycoprotein of the extracellular matrix, immobilized on the chip	–	–	firmer
DRVPHSRNSIT-OH (listed as Homo sapiens) [No. 20]	make the adhesion of MSCs possible	not that of fibroblasts	–
LRE-Doa-A-OH (LRE[Doa]A-OH; reading uncertain; also: printed as LRE-Doa-A-OH; listed as Homo sapiens) [No. 9-COOH]	make the adhesion of MSCs possible	not that of fibroblasts	–
KREDVY-OH (listed as Homo sapiens) [No. 21]	make the adhesion of MSCs possible	not that of fibroblasts	–
